Our source for the mass density, Normal melting temperature and molar enthalpy values is the NIST ThermoML archive (doi:10.1016/j.jct.2008.12.015).

Numbers after ± are expanded uncertainties.

For series [1] the following is noted: Crystal; for mass density: 298.15 K, 101.33 kPa; for Normal melting temperature: DTA.
Series [2] in a line: molar enthalpy of vaporization or sublimation. The conditions noted are these: Static calorimetry.

For the compound `CC(C)(C)c1ccc(-c2ccc(C(C)(C)C)cc2)cc1` [4,4'-bis(1,1-dimethylethyl)-1,1'-biphenyl], in series [1], the mass density is 950 kg/m3 and the Normal melting temperature came out at 127.7 ± 0.4 °C. Also, the molar enthalpy in series [2] (399.15 K, Crystal) came to 99.7 ± 1.7 kJ/mol.
For `CC(C)(C)c1ccc(-c2ccccc2)cc1` [4-(1,1-dimethylethyl)-1,1'-biphenyl], in series [1], the mass density is 1030 kg/m3 and the Normal melting temperature was 51.6 ± 0.4 °C. Also, in series [2] (322.65 K, Crystal), the molar enthalpy was found to be 97.3 ± 1.6 kJ/mol. The molar enthalpy in series [2] (334 K, Liquid) is 77 ± 0.86 kJ/mol.
